From patent publication EP0652769B1, “VACCINES AGAINST METAZOAN PARASITES” (MALLINCKRODT VETERINARY, INC., priority 1992, dated 1994)
Values joined by “and” are separate entries in the source; they are usually repeats but may differ in a detail not shown here. Equal entries are not always repeated. Square brackets hold non-standard residues; d marks the D form. Peptide text beside a SMILES is read from it. * marks the point of attachment. Sta = CC(C)C[C@H](N)[C@@H](O)CC(=O)O; Isovaleryl = CC(C)CC(=O)*

Tests used:
H-gal-GP [1] = experiment: Azocasein proteolysis by H-gal-GP at pH 7 with a panel of proteinase inhibitors (neutral endopeptidase-like activity); format: biochemical, H.contortus; conditions: inhibitor 1mM, overnight at 37°C
Description: Proteinase activity was determined using azocasein as substrate in a microassay system. H-gal-GP (approximately 5ug in 20µl) was preincubated for 3Omin at 37°C with 2OOµl sterile 0.1M phosphate buffer, pH 7.0 containing no inhibitor (control), or inhibitor to a final concentration of 1mM. Inhibitors used were prepared as 100mM stock solutions in water except for 4-hydroxymercuribenzoate (4HMB) and pepstatin which were dissolved in methanol. Inhibitors tested were dithiothreitol (DTT); L-cysteine; reduced glutathione; 4HMB; N-ethylmaleimide; EDTA; 1,10 phenanthroline and pepstatin and were all purchased from Sigma. After preincubation 20µl azocasein (5mg/ml in sterile distilled water; Sigma) was added and the reaction mixtures incubated overnight at 37°C. Parallel blanks containing sterile water instead of H-gal-GP were included for each inhibitor tested and assays were performed in duplicate. The reactions were stopped by addition of an equal volume of 1M perchloric acid (BDH chemicals) and retained on ice for 15min to precipitate undigested protein which was subsequently pelleted by brief centrifugation at 11000g using a microfuge. The 0D₄₀₅ of the supernatant was determined using a "Monarch" microcentrifugal analyser (Instrumentation Laboratory, Warrington, UK). After subtraction of the appropriate reagent blank the degree of inhibition was expressed as the percent activity remaining compared to the control reaction.

Oc-gal-GP = experiment: Inhibitor sensitivity of protease activity; format: biochemical, O.circumcincta; conditions: means of 2 observations
Oo-gal-GP = experiment: Inhibitor sensitivity of protease activity; format: biochemical, O.ostertagi; conditions: means of 2 observations
H-gal-GP [2] = experiment: Inhibitor sensitivity of protease activity; format: biochemical, H. contortus; conditions: peanut lectin purified H-gal-GP; means of 4 separate observations
Description: The optimum pH for this activity was determined over the pH range 4 to 9 using overlapping 0.1M acetate, phosphate or Tris buffers (Fig. 8). Optimal activity was found between pH 4.5 and 6.5. ii) Inhibitor sensitivity The inhibitor sensitivity of the proteinase activity was tested with 4 separate preparations of peanut lectin purified H-gal-GP. […]

[3] = tested on: extracts of adult T.vitrinus; experiment: Proteolytic activity of worm extracts in the presence of pepstatin; format: biochemical
Description: Proteolytic activity in extracts of adult T.vitrinus was reduced by 40% in the presence of pepstatin. […] These observations indicate that T.vitrinus also contains aspartyl proteinase activity similar to Haemonchus and Ostertagia spp.

[4] = molecular target: Haemonchus galactose-containing glycoprotein complex (H-gal-GP) (Haemonchus contortus); experiment: cell-based or functional assay
[5] = molecular target: Ostertagia circumcincta galactose containing glycoprotein complex (Oc-gal-GP) (Ostertagia circumcincta); experiment: cell-based or functional assay
[6] = molecular target: Ostertagia ostertagi galactose-containing glycoprotein complex (Oo-gal-GP) (Ostertagia ostertagi); experiment: cell-based or functional assay
[7] = first analysis, 0.1M phosphate buffer
[8] = second analysis, same batch of H-gal-GP

Row | Molecule | % activity remaining (H-gal-GP [1]; [7]) [%] | % activity remaining (H-gal-GP [1]; [8]) [%] | percent activity remaining in the presence of inhibitor (Oc-gal-GP) [%] | percent activity remaining in the presence of inhibitor (Oo-gal-GP) [%] | percent activity remaining in the presence of inhibitor (H-gal-GP [2]) [%] | also measured
1 | O[C@H](CS)[C@H](O)CS (racemic) [Dithiothreitol, dithiothreitol] | 48 | 44 |  |  |  | 
2 | c1cnc2c(c1)ccc1cccnc12 [1, 10 Phenanthroline, 1,10 phenanthroline] | 26 | 23 | 94 | 99 | 97 | 
3 | O=C([O-])c1cc[c]([Hg][OH])cc1 [4-hydroxymercuribenzoate] | 88 | 91 |  |  |  | 
4 | N[C@@H](CS)C(=O)O [Cysteine, L-cysteine] |  | 0 |  |  |  | 
5 | CC(C)C[C@H](NC(=O)[C@H]1O[C@@H]1C(=O)O)C(=O)NCCCCN=C(N)N [E64] |  |  | 101 | 101 | 87.8 | 
6 | O=C(O)CN(CCN(CC(=O)O)CC(=O)O)CC(=O)O [EDTA] | 25 | 10 |  |  | 97.8 | 
7 | N[C@@H](CCC(=O)N[C@@H](CS)C(=O)NCC(=O)O)C(=O)O [Glutathione, reduced glutathione] | 87 | 85 |  |  |  | 
8 | CCN1C(=O)C=CC1=O [N-ethylmaleimide] | 74 | 77 |  |  |  | 
9 | O=S(=O)(F)Cc1ccccc1 [PMSF] |  |  | 104 | 84 | 100 | 
10 | CC(C)CC(=O)N[C@H](C(=O)N[C@H](C(=O)N[C@@H](CC(C)C)[C@@H](O)CC(=O)N[C@@H](C)C(=O)N[C@@H](CC(C)C)[C@@H](O)CC(=O)O)C(C)C)C(C)C [Pepstatin, pepstatin] (Isovaleryl-VV[Sta]A[Sta]-OH) | 75 | 85 | 23 | 0 | 8.5 | Proteolytic activity reduced [3]: 40%
11 | Serum of control lamb (injected with adjuvant only) (antibody) |  |  |  |  |  | % Inhibition of Proteolysis (Assay 1) [4]: 0%; % Inhibition of Proteolysis (Assay 2) [4]: 2%
12 | pepstatin (peptide) |  |  |  |  |  | % activity remaining (azocasein proteolysis at pH7) [4]: 75% and 85%; percent activity remaining in the presence of inhibitor [4]: 8.5%; percent activity remaining in the presence of inhibitor [5]: 23%; percent activity remaining in the presence of inhibitor [6]: 0%
